The results in this text go back to PubChem BioAssay (NCI).

Test systems include A549 NSCLC; SK-OV-3 ovarian; CCRF-CEM leukemia; OVCAR-5 ovarian; COLO 205 colon; UACC-62 melanoma; SNB-19 CNS; MDA-MB-435; NCI-H226 lung; SN12C renal.
Common to all, as to assay: inhibition of tumour cell growth, NCI panel, 48 h

Each structure is given as a SMILES string.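 Method: 48-hour compound exposure of cells in 96-well plates, five concentrations, linear interpolation of endpoints. GI50: concentration for 50% inhibition of growth. TGI marks complete inhibition of growth.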

As to `N#Cc1nc2cc(Cl)c(Cl)cc2nc1-c1ccc(Cl)cc1`, the GI50 was 13.8 µM with A549 NSCLC; over 48.3 µM with SK-OV-3 ovarian; 8.61 µM with CCRF-CEM leukemia; over 100 µM with OVCAR-5 ovarian; over 76.3 µM in the assay on COLO 205 colon; 33.2 µM in the assay on UACC-62 melanoma. Besides, the GI50 in the assay with SNB-19 CNS is over 43.4 µM; in the assay with MDA-MB-435 it was over 83.4 µM; with NCI-H226 lung, 21.7 µM; in the assay on SN12C renal, 28.5 µM. In addition, the TGI is over 46.6 µM in the assay with A549 NSCLC; over 80.5 µM with SK-OV-3 ovarian; 25.7 µM with CCRF-CEM leukemia; over 100 µM in the assay on OVCAR-5 ovarian; over 100 µM in the assay on COLO 205 colon; over 70.9 µM in the assay with UACC-62 melanoma. Further, the TGI was over 60.6 µM in the assay on SNB-19 CNS, over 100 µM with MDA-MB-435, over 61.6 µM in the assay with NCI-H226 lung and over 78.6 µM in the assay on SN12C renal.
For the compound `CCCCCOC(=O)c1c(C)[nH]c(/C=C2\N=C(c3ccc[nH]3)C=C2OC)c1C`, the GI50 is 0.0293 µM with A549 NSCLC; 0.209 µM in the assay on SK-OV-3 ovarian; 0.0194 µM in the assay with CCRF-CEM leukemia; 0.0191 µM in the assay on OVCAR-5 ovarian; 0.0331 µM with COLO 205 colon; 0.0213 µM in the assay with UACC-62 melanoma. Moreover, the GI50 in the assay with SNB-19 CNS is 0.317 µM; with MDA-MB-435, 0.0348 µM; in the assay on NCI-H226 lung, 0.222 µM; in the assay with SN12C renal it was 0.0482 µM. Also, the TGI was 0.184 µM with A549 NSCLC; 2.38 µM with SK-OV-3 ovarian; 1.99 µM in the assay with CCRF-CEM leukemia; 1.21 µM in the assay on OVCAR-5 ovarian; 1.04 µM in the assay with COLO 205 colon; 0.0491 µM in the assay on UACC-62 melanoma. Moreover, the TGI with SNB-19 CNS was 8.4 µM; in the assay on MDA-MB-435, 0.734 µM; in the assay with NCI-H226 lung, 2.13 µM; in the assay with SN12C renal, 1.73 µM.
With `CCN(Cc1ccccc1)c1ccc(/C=C2\COc3ccccc3C2=O)cc1`, the GI50 in the assay with A549 NSCLC was over 1000 µM; in the assay on SK-OV-3 ovarian it was over 1000 µM; with CCRF-CEM leukemia, 73.5 µM; with OVCAR-5 ovarian, over 1000 µM; with COLO 205 colon it was over 1000 µM; in the assay on UACC-62 melanoma it was 304 µM. The GI50 is over 1000 µM in the assay with SNB-19 CNS, 47 µM in the assay on MDA-MB-435, over 1000 µM in the assay on NCI-H226 lung and over 1000 µM in the assay with SN12C renal. Further, the TGI with A549 NSCLC, in the assay with SK-OV-3 ovarian, in the assay on CCRF-CEM leukemia, with OVCAR-5 ovarian, in the assay with COLO 205 colon and in the assay with UACC-62 melanoma was over 1000 µM throughout. The TGI is over 1000 µM in the assay on SNB-19 CNS, 458 µM in the assay on MDA-MB-435, over 1000 µM in the assay with NCI-H226 lung and over 1000 µM in the assay on SN12C renal.
As for `CCN(CC)CCN1C(=O)C2C3C(C)=CC(OC(C)=O)(CC3C)C2C1=O` (centres undefined), the GI50 in the assay on A549 NSCLC, in the assay with SK-OV-3 ovarian, in the assay with CCRF-CEM leukemia, in the assay with OVCAR-5 ovarian, in the assay on COLO 205 colon and with UACC-62 melanoma was over 100 µM each time. In addition, the GI50 in the assay with SNB-19 CNS, in the assay with MDA-MB-435, with NCI-H226 lung and in the assay with SN12C renal was over 100 µM each time. Also, the TGI in the assay on A549 NSCLC, in the assay on SK-OV-3 ovarian, in the assay with CCRF-CEM leukemia, in the assay on OVCAR-5 ovarian, with COLO 205 colon and with UACC-62 melanoma was over 100 µM in each case. Besides, the TGI in the assay on SNB-19 CNS, with MDA-MB-435, in the assay on NCI-H226 lung and in the assay on SN12C renal was over 100 µM each time.
Turning to `Cc1ccc(NC(=O)c2ccoc2)cc1-c1ccc(C(=O)NCC2CC2)cc1`, the GI50 in the assay with A549 NSCLC was over 19.5 µM; in the assay on SK-OV-3 ovarian, over 25 µM; in the assay with CCRF-CEM leukemia, over 25 µM; in the assay with OVCAR-5 ovarian, over 25 µM; with COLO 205 colon it was over 25 µM; in the assay with UACC-62 melanoma, 13.9 µM. In addition, the GI50 with SNB-19 CNS is over 25 µM; in the assay with MDA-MB-435, over 25 µM; in the assay on NCI-H226 lung, over 19.5 µM; in the assay with SN12C renal, over 25 µM. Moreover, the TGI in the assay on A549 NSCLC, in the assay with SK-OV-3 ovarian, in the assay with CCRF-CEM leukemia, in the assay on OVCAR-5 ovarian, in the assay on COLO 205 colon and with UACC-62 melanoma was over 25 µM throughout. The TGI in the assay with SNB-19 CNS, in the assay on MDA-MB-435, in the assay on NCI-H226 lung and with SN12C renal was over 25 µM each time.
`COC1C(OC(=O)/C=C/C=C/C=C/C=C/C(=O)O)CCC2(CO2)C1C1(C)OC1CC=C(C)C` (centres undefined): the GI50 in the assay on A549 NSCLC is 0.308 µM; in the assay with CCRF-CEM leukemia, 0.386 µM; in the assay with COLO 205 colon it was 0.157 µM; in the assay with UACC-62 melanoma, 0.101 µM; in the assay with SNB-19 CNS, 0.277 µM; with MDA-MB-435 it was 0.105 µM. Also, the GI50 in the assay with SN12C renal is 0.225 µM. Also, the TGI was over 100 µM in the assay with A549 NSCLC; over 84.5 µM in the assay with SK-OV-3 ovarian; 78.1 µM in the assay on CCRF-CEM leukemia; over 100 µM with OVCAR-5 ovarian; 26.1 µM in the assay with COLO 205 colon; over 100 µM in the assay with SNB-19 CNS. This compound also yielded a TGI in the assay on NCI-H226 lung of over 100 µM.
